In patent publication US9945845B2, “Methods of screening using amphibians” (priority 2009, dated 2018):
Where two headings read alike, the source gives them in different places.

What was measured:
[1] = tested on: HUVEC; assay: HUVEC cell proliferation assay; type: cell-based, human; conditions: 10 μM in 0.1% DMSO, 48 hours; for activity at 10 µM: Homo sapiens, HUVEC, 48 h, read-out: HUVEC proliferation
Method: (§1) Human umbilical vein endothelial cells (HUVEC) were purchased from PromoCell. […] HUVEC and LEC were cultured in endothelial basal medium EBM (Cambrex) supplemented with 20% fetal bovine serum (Invitrogen), antibiotic-antimycotics (100 U/ml penicillin, 100 μg/ml streptomycin, 250 ng/ml amphotericin; Invitrogen). 2 mM L-glutamine (Invitrogen), 10 μg/ml hydrocortisone (Fluka) and 25 μg/ml N^6,2′-O-dibutyryladenosine 3′,5′-cyclic monophosphate sodium salt (Fluka) for up to eleven passages.
(§2) The intensity of fluorescence, which is proportional to the number of viable cells, was measured using a microplate reader (SpectraMax Gemini EM; Molecular Devices). The chemical treatments were performed in five replicates.
(§3) The cell proliferation assays were performed by treating the endothelial cell cultures with compounds at a screening dose of 10 μM in 0.1% DMSO for 48 hours (FIG. 6a; Table 10).

[2] = tested on: Xenopus embryos; conditions: for Lethality (NF) / Onset (NF) / edema or other phenotype in compound-treated Xenopus embryos/tadpoles (in words): 1% DMSO; for Embr. phen.: embryonic phenotype in the primary screen; for Lethality: — = no stage of lethality given; for Onset (NF): onset of edema
Procedure, shortened: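 Stage 31 (37 hpf) Xenopus embryos, five per well, exposed to 20 µM compound in 1% DMSO at 23 °C for 4 days. Edema, lethality and other external phenotypes were scored daily by two investigators at stages 39, 41, 45 and 47.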

[3] = tested on: HUVEC; assay: HUVEC tube formation assay; type: cell-based, human; conditions: 1 μM in 0.1% DMSO; for activity at 1 µM: Homo sapiens, HUVEC
Method: as §1
(§4) The effect of the selected chemicals on the formation of tube-like structures was performed as follows. […] After overnight incubation at 37° C. the treated cell cultures were fixed with 4% paraformaldehyde. Each chemical treatment was performed in triplicate and the experiment was repeated at least three times. Three representative images of hotspots with tube-like structures were taken per well using a digital camera (AxioCam MRm, Carl Zeiss) mounted on an inverted microscope (Axiovert 200M, Carl Zeiss). The length of the tube-like structures was measured using the IPLab software (BD Biosciences). For each experimental condition, results are represented as average total tube length (μm) per area (three image fields).
(§5) The effects of the selected compounds on endothelial tube formation was assessed after over treatment of LEC and HUVEC cultures at a compound concentration of 1 μM in 0.1% DMSO. The length of the tube-like structures was measured using the IPLab software.

[4] = tested on: LEC; assay: cells; type: cell-based, human; conditions: 1 μM in 0.1% DMSO; for activity at 1 µM: Homo sapiens
Method: as §1, §4, §5

[5] = tested on: blood vessel development and/or lymphangiogenesis in Xenopus embryos; type: in vivo, Xenopus laevis; conditions: for ISV phenotype: intersomitic vessels; for PCV phenotype: posterior cardinal vein; for VVN phenotype: vitelline vein network; for blood vessel development phenotype (apj expression, in words): 20 μM from stage 31, fixed at stage 35/36; for lymph vessel development phenotype (vegfr3 expression, in words): 20 μM from stage 31, fixed at stage 42; for ALH phenotype: anterior lymph heart; for ALS phenotype: anterior lymph sac; for PLV phenotype: posterior lymph vessels
Method: All chemicals were purchased from Sigma and 10-mM stock solutions in DMSO were prepared. Chemicals were used at a final concentration of 20 μM in screening medium to treat homozygous albino Xenopus embryos, which lack natural pigmentation. Chemical treatments of embryos (n=7 per well) was initiated at stage 31 (37 hpf) and terminated at stages 35/36 (50 hpf) or 42 (80 hpf). Embryos were fixed in 4% paraformaldehyde and processed for whole mount in situ hybridization.
Where albino embryos were used, the bleaching step was omitted. Semi-automated whole mount in situ hybridizations were performed using the Biolane HTI machine (Hölle & Hüttner AG, Germany). […] Images were captured using a stereomicroscope (SteREO Lumar V12; Carl Zeiss) equipped with a digital camera (AxioCam Color; Carl Zeiss). Composite figures were organized and labeled using Adobe Photoshop CS2 and Adobe Illustrator CS software.
Edema formation or late-stage lethality may result from excretory system defects, (cardio)vascular and/or lymphatic vascular pathologies. […] Embryos were fixed for in situ hybridization either at stage 35/36 to analyze vasculogenesis and intersomitic vein angiogenesis defects or at stage 42 to evaluate possible defects in lymph vessel development (FIGS. 3-5).

[6] = tested on: LEC; assay: LEC cell proliferation assay; type: cell-based, human; conditions: 10 μM in 0.1% DMSO, 48 hours; for activity at 10 µM: Homo sapiens, 48 h, read-out: LEC proliferation
Method: as §1, §2, §3

[7] = compounds causing edema, 20 μM, treatment from stage 31, scored to stage 47
[8] = 20 μM, treatment from stage 31, Nieuwkoop & Faber stage
[9] = overnight, read-out: HUVEC tube formation
[10] = read-out: HUVEC tube formation (tube length)
[11] = overnight, read-out: LEC tube formation
[12] = read-out: LEC tube formation (tube length)
[13] = compounds causing lethality, 20 μM, treatment from stage 31, Nieuwkoop & Faber stage

Row | Compound | HUVEC proliferation [1] | Lethality (NF) [2, 7] | Embr. phen. [2] | Type of edema Pericordial ([2]; embryonic stage) | Lethality ([2]; embryonic stage) | Onset (NF) [2, 8] | HUVEC tube formation ([3]; overnight) | LEC tube formation ([4]; overnight) | ISV phenotype ([5]; Xenopus embryos) | PCV phenotype ([5]; Xenopus embryos) | VVN phenotype ([5]; Xenopus embryos) | LEC proliferation [6] | blood vessel development phenotype (apj expression, in words) [5] | lymph vessel development phenotype (vegfr3 expression, in words) [5] | ALH phenotype ([5]; Xenopus embryos) | ALS phenotype ([5]; Xenopus embryos) | PLV phenotype ([5]; Xenopus embryos) | activity at 10 µM [1] [%] | activity at 1 µM [3, 9] [%] | activity at 1 µM [3, 10] [%] | other results
1 | COc1cc2c(cc1O)CC[C@@H]1[C@@H]2CC[C@]2(C)[C@@H](O)CC[C@@H]12 [2-methoxyestradiol, 2-Hydroxyestradiol 2-methyl ether] | O (O, inactive or marginal effects (85-115% of control);) | 33/34 | EDE | 33/34 | 33/34 | 33/34 | − − (− −, strong inhibition (<50% of control);) | − (−, moderate inhibition (50-85% of control):) | impaired | hypoplastic | hypoplastic | − (−, moderate inhibition (50-85% of control):) |  |  |  |  |  |  |  |  | scored in the phenotypic Xenopus screens ([2]; 20 μM, known antiangiogenic compounds): active; HUVEC tube formation (tube length) [3]: 40 % of control; effect on HUVEC tube formation (in words) [3]: blocked tube formation preferentially in HUVEC cultures; LEC tube formation (tube length) [4]: 80 % of control; effect on LEC proliferation (in words) [6]: inhibited preferentially LEC proliferation
2 | Nc1ccc2c3c(cccc13)C(=O)NC2=O [4-Amino-1,8-naphthalimide] | + (+, moderate promotion (>115-150% of control).) |  | EDE | 41/42 |  | 41/42 | O (O, inactive or marginal effects (85-115% of control);) | − (−, moderate inhibition (50-85% of control):) | normal | normal | hyperplastic | O (O, inactive or marginal effects (85-115% of control);) | hyperplasia of the VVN, while ISV angiogenesis occurred unaffected | lymphangiogenesis was largely suppressed | stunted | impaired | hypoplastic |  |  |  | Type of edema Proctodeal ([2]; embryonic stage): 47 embryonic stages according to Nieuwkoop and Faber (NF); Type of edema Periocular ([2]; embryonic stage, * = causing bulging eyes, # = bilateral, causing narrow-set eyes): 41/42*; effect on LEC tube formation (in words) [4]: preferentially blocked tube formation in LEC rather than HUVEC cultures
3 | Nc1ncnc2c1c(-c1ccc(Oc3ccccc3)cc1)cn2C1CCCC1 [7-Cyclopentyl-5-(4-phenoxy)phenyl-7H-pyrrolo[2,3-d]pyrimidin-4-ylamine] | O (O, inactive or marginal effects (85-115% of control);) | 45 NF | EDE | 41/42 | 45 embryonic stages according to Nieuwkoop and Faber (NF) | 41/42 | − − (− −, strong inhibition (<50% of control);) | − − (− −, strong inhibition (<50% of control);) | stunted | normal | normal | O (O, inactive or marginal effects (85-115% of control);) | interfered with angiogenic ISV sprouting but not with VVN assembly | lymphangiogenesis was strongly suppressed | impaired | impaired | hypoplastic |  |  |  | Type of edema Pronephric ([2]; embryonic stage): 41/42
4 | O=c1c(-c2ccc(O)cc2)coc2cc(O)cc(O)c12 [Genistein, 5,7-Dihydroxy-3-(4-hydroxyphenyl)-4H-1-benzopyran-4-one] |  | 46 NF |  |  | 41/42 | 35/36 |  |  | stunted | normal | hyperplastic |  | stunted ISVs and hyperplastic VVN | lymphatic vessels and LECs were absent | impaired | impaired | impaired | 85 to 115 | 50 to 85 | 50 to 85 | edema or other phenotype in compound-treated Xenopus embryos/tadpoles (in words) ([2]; 20 μM, treatment from stage 31): edemas localized to the tail tip; Type of edema Tail tip ([2]; embryonic stage): 35/36; activity at 1 µM [4, 11]: 50 to 85%; activity at 1 µM [4, 12]: 50 to 85%; activity at 10 µM [6]: 85 to 115%
5 | COc1cc(OC)c(C=C2C(O)=Nc3ccccc32)c(OC)c1 [IC 261, 1,3-Dihydro-3-[(2,4,6-trimethoxyphenyl)methylene]-2H-indol-2-one] |  | 41/42 |  | 35/36 | 41/42 | 35/36 |  |  | impaired | hypoplastic | hypoplastic |  | interfered with blood vessel vasculogenesis and PCV assembly |  |  |  |  | 85 to 115 | 50 to 85 | 50 to 85 | Type of edema Proctodeal ([2]; embryonic stage): 41/42; Type of edema Pronephric ([2]; embryonic stage): 41/42; activity at 1 µM [4, 11]: 50 to 85%; activity at 1 µM [4, 12]: 50 to 85%; effect on LEC proliferation (in words) [6]: inhibited preferentially LEC proliferation; activity at 10 µM [6]: 50 to 85%
6 | CCCCOC(=O)NS(=O)(=O)c1sc(CC(C)C)cc1-c1ccc(Cn2c(CC)nc3c(C)cc(C)nc32)cc1 [L-162,313] | + (+, moderate promotion (>115-150% of control).) |  | LET |  |  |  | − (−, moderate inhibition (50-85% of control):) | − (−, moderate inhibition (50-85% of control):) | impaired | normal | hypoplastic | O (O, inactive or marginal effects (85-115% of control);) | potent inhibitors of developmental angiogenesis |  |  |  |  |  |  |  | Lethality (NF) [2, 13]: 45 NF; Lymphatic phenotype ([5]; Xenopus embryos): normal
7 | CC(C)c1ccc2c(c1)c(SC(C)(C)C)c(CC(C)(C)C(=O)[O-])n2Cc1ccc(Cl)cc1.[Na+] [MK-886, 3[3-tert-Butylthio-1-(4-chlorobenzyl)-5-isopropyl-1H-indol-2-yl]-2,2-dimethylpropionic acid, sodium salt] |  |  |  |  |  |  |  |  | normal | normal | hypoplastic |  | hypoplasia of the VVN |  |  |  |  | 115 to 150 | 50 to 85 | 50 to 85 | edema or other phenotype in compound-treated Xenopus embryos/tadpoles (in words) ([2]; 20 μM, treatment from stage 31): causing lethality; Lethality (NF) [2, 13]: 39 NF; activity at 1 µM [4, 11]: 50 to 85%; activity at 1 µM [4, 12]: 50 to 85%; Phenotype class in vivo ([5]; Xenopus embryos, 20 μM, vascular phenotype): VVN hypoplasia; activity at 10 µM [6]: 85 to 115%
